Here are results for two molecules from patent publication US7659263B2, “Thienopyrrole compound and use thereof as HCV polymerase inhibitor” (Japan Tobacco Inc., priority 2004, dated 2010).

Where a name gives a salt, the structure may show the parent alone.

A word on the IC50: it is the midpoint of a concentration-inhibition curve.

One experiment addresses T1, NS5B 1a (Hepatitis C virus genotype 1a, UniProt P27958).
T1 construct: NS5B 1a
Nature of the experiment: Assay of enzyme (HCV polymerase) inhibitory activity, NS5B 1a. The class given is biochemical. To be noted: HCV polymerase NS5B 1a; [3H]UTP incorporation, 25° C., 90 min.

Another experiment addresses T2, NS5B 1b (Hepatitis C virus genotype 1b, UniProt P26663).
T2 construct: a region encoding NS5B (J Virol 1991 March, 65(3), 1105-13, 544 amino acids after deletion of 47 amino acids on the C-terminal); 6 His (C); made in house; host or cells: Escherichia coli
Nature of the experiment: Assay of enzyme (HCV polymerase) inhibitory activity, NS5B 1b. The experiment is classed as biochemical. The source says:
The evaluation of the HCV polymerase inhibitory activity of the compound of the present invention is explained in the following. This polymerase is an enzyme coded for by the non-structural protein region called NS5B on the genome RNA of HCV (EMBO J., 15:12-22, 1996).
i) Preparation of enzyme (HCV polymerase)
Using, as a template, a cDNA clone corresponding to the full length genome RNA of HCV BK strain obtained from the blood of a patient with hepatitis C, a region encoding NS5B (J Virol 1991 March, 65(3), 1105-13, 544 amino acids after deletion of 47 amino acids on the C-terminal) was amplified by PCR. The objective gene was prepared by adding a 6 His tag {base pair encoding 6 continuous histidine (His)} to the 3′ end thereof and transformed to Escherichia coli. The Escherichia coli capable of producing the objective protein was cultured. The obtained cells were suspended in a buffer solution and crushed in a microfluidizer. The supernatant was obtained by centrifugation and applied to various column chromatographys {mono-S, Sephacryl S-200 (Pharmacia)}, inclusive of metal chelate chromatography, to give a standard enzyme product.
ii) Synthesis of Substrate RNA
Using a synthetic primer designed based on the sequence of HCV genomic 3′ untranslated region, a DNA fragment (148 bp) containing polyU and 3′X sequence was entirely synthesized and cloned into plasmid pBluescript SK II(+) (Stratagene). The cDNA encoding full length NS5B, which was prepared in i) above, was digested with restriction enzyme KpnI to give a cDNA fragment containing the nucleotide sequence of from the restriction enzyme cleavage site to the termination codon. This cDNA fragment was inserted into the upstream of 3′ untranslated region of the DNA in pBluescript SK II(+) and ligated. The about 450 bp inserted DNA sequence was used as a template in the preparation of substrate RNA. This plasmid was cleaved immediately after the 3′X sequence, linearized and purified by phenol-chloroform treatment and ethanol precipitation to give DNA.
RNA was synthesized (37° C., 3 hr) by run-off method using this purified DNA as a template, a promoter of pBluescript SK II(+), MEGAscript RNA synthesis kit (Ambion) and T7 RNA polymerase. DNase I was added and the mixture was incubated for 1 hr. The template DNA was removed by decomposition to give a crude RNA product. This crude product was treated with phenol-chloroform and purified by ethanol precipitation to give the objective substrate RNA.
This RNA was applied to formaldehyde denaturation agarose gel electrophoresis to confirm the quality thereof and preserved at −80° C. iii) Assay of enzyme (HCV polymerase) inhibitory activity A test substance (compound of the present invention) and a reaction mixture (30 μl) having the following composition were reacted at 25° C. for 90 min.
10% Trichloroacetic acid at 4° C. and 1% sodium pyrophosphate solution (150 μl) were added to this reaction mixture to stop the reaction. The reaction mixture was left standing in ice for 15 min to insolubilize RNA. This RNA was trapped on a glass filter (Whatman GF/C and the like) upon filtration by suction. This filter was washed with a solution containing 1% trichloroacetic acid and 0.1% sodium pyrophosphate, washed with 90% ethanol and dried. A liquid scintillation cocktail (Packard) was added and the radioactivity of RNA synthesized by the enzyme reaction was measured on a liquid scintillation counter.
The HCV polymerase inhibitory activity (IC50) of the compound of the present invention was calculated from the values of radioactivity of the enzyme reaction with and without the 20 test substance. […]

T2 sequence (P26663 2420-2963): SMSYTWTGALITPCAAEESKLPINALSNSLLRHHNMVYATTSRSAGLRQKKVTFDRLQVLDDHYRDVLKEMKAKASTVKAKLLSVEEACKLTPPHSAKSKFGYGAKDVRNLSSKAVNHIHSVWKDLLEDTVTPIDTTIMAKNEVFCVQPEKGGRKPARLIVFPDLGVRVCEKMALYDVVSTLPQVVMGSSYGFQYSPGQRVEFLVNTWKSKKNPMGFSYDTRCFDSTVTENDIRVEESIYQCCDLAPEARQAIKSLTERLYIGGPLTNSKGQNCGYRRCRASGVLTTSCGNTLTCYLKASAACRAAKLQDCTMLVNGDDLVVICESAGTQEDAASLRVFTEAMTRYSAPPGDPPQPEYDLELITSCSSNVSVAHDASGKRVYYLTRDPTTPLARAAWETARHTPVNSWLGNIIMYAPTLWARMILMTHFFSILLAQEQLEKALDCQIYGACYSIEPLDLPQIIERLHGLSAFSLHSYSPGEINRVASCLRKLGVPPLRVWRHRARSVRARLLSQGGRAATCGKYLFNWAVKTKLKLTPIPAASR
T1 sequence (P27958 2421-3011): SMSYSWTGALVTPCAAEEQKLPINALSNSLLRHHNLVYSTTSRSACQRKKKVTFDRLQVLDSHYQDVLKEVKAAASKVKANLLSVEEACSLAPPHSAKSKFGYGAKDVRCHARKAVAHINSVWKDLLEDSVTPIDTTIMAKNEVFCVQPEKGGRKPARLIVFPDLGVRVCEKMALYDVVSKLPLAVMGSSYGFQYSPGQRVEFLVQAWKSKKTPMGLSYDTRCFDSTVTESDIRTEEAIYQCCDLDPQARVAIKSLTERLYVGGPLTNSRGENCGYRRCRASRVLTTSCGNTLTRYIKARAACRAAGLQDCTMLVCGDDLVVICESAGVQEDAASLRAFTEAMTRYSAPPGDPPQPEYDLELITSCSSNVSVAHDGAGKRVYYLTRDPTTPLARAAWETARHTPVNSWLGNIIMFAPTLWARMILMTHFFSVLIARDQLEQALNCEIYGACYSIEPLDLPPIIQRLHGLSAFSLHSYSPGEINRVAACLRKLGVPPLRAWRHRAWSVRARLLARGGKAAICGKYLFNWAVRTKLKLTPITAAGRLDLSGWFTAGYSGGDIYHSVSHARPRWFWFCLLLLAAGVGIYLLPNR

As for `CCOc1ccc2c(c1)N(C)CCn1c-2c(C2CCCCC2)c2sc(C(=O)NC3(C(=O)Nc4ccc(/C=C/C(=O)O)cc4)CCC3)cc21` [Example 45, (E)-3-[4-({1-[(11-cyclohexyl-8-ethoxy-6-methyl-5,6-dihydro-4H-1-thia-3b,6-diazabenzo[e]cyclopenta[a]azulene-2-carbonyl)amino]cyclobutanecarbonyl}amino)phenyl]acrylic acid], the IC50 against NS5B 1a and at NS5B 1b was 10 to 100 nM in each case.
For `O=C(O)c1cc2c(s1)c(C1CCCCC1)c1n2CCOc2c-1cccc2N(CCN1CCOCC1)CCN1CCOCC1` [Example 46, 7-{bis[2-(morpholin-4-yl)ethyl]amino}-1l-cyclohexyl-4,5-dihydro-6-oxa-1-thia-3b-azabenzo[e]cyclopenta[a]azulene-2-carboxylic acid trihydrochloride], the IC50 at NS5B 1a was 10 to 100 nM; against NS5B 1b, < 10 nM.
